# Values joined by “and” are separate entries in the source; they are usually repeats but may differ in a detail not shown here. Equal values may be shown once. Read-outs that look alike come from different tables or passages of the source.
# Experiments:
# ALK-positive NSCLC [1] = conditions: crizotinib-refractory population; cited from earlier work
# [2] = cited from earlier work; for patients who experienced diarrhea: in some studies
# ALK-positive NSCLC [3] = conditions: cited from earlier work
# wild-type ALK = wild-type ALK (Homo sapiens, UniProt Q9UM73); assay: Biochemical kinase assay
# wild-type ALK, sequence (Q9UM73 19-1620): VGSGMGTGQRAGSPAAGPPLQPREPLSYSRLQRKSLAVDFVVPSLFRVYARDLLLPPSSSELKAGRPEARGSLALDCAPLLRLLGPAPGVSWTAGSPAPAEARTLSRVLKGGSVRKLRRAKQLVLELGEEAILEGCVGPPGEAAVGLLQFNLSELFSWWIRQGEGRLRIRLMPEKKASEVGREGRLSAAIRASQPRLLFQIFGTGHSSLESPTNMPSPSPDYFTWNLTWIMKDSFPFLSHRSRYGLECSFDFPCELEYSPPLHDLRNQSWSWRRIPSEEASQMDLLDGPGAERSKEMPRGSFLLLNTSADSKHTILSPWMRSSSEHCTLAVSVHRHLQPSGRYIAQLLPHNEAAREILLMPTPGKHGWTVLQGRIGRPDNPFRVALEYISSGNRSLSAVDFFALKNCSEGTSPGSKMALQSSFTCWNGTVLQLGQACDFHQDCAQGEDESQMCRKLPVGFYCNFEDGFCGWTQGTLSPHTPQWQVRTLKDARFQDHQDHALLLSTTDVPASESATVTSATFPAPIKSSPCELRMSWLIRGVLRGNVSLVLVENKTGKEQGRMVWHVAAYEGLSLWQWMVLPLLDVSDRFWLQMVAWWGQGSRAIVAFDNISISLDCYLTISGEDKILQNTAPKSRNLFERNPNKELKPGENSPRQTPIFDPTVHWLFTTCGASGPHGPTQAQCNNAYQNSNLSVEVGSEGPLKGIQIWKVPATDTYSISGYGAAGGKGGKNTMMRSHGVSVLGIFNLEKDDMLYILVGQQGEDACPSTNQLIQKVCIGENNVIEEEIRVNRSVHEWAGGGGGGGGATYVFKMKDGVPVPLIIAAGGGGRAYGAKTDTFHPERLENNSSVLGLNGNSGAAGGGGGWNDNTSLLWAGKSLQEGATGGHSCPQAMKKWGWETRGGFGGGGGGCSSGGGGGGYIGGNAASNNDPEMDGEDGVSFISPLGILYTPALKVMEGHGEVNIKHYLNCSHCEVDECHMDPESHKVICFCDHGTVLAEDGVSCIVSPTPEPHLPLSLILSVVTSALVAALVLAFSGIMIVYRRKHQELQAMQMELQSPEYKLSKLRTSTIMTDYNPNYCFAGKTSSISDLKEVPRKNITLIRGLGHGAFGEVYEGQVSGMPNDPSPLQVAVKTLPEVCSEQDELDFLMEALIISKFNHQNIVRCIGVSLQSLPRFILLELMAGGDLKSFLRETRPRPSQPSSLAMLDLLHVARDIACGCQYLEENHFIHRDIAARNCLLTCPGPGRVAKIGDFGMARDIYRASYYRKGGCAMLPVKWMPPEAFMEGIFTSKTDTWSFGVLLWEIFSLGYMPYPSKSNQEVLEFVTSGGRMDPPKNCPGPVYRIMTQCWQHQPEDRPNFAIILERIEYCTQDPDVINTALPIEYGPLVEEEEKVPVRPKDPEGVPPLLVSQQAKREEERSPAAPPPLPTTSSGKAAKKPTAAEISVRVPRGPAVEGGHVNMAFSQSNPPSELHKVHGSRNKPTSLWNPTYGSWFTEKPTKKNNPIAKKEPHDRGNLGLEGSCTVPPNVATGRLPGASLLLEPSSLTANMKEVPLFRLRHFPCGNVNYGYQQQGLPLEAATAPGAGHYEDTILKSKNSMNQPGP
# ALK variants = assay: Biochemical kinase assay; conditions: read-out: in vitro IC50s, all evaluated ALK variants; wild-type ALK and 17 ALK variants
# ALK F1174 mutant = ALK F1174 mutant (Homo sapiens, UniProt Q9UM73); assay: Biochemical kinase assay
# ALK F1174 mutant, sequence (Q9UM73 1058-1620, stated change not applied): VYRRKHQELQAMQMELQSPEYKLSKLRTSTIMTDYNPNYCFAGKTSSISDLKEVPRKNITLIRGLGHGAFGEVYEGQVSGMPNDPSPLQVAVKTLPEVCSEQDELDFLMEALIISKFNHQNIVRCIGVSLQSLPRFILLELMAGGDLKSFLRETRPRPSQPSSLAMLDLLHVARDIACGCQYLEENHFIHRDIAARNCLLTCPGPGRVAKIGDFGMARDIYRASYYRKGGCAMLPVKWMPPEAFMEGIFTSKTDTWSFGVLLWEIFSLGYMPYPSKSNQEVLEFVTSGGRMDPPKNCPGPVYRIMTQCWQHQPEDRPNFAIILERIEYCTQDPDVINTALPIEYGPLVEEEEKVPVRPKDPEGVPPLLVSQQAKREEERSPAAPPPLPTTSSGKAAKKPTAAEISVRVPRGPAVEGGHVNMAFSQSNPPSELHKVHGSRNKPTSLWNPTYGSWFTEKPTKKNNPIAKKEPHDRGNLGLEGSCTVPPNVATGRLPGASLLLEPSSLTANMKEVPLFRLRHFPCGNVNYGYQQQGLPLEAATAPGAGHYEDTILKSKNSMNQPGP
# ALK C1156Y mutant = ALK C1156Y mutant (Homo sapiens, UniProt Q9UM73, C1156Y); assay: Biochemical kinase assay
# ALK C1156Y mutant, sequence (Q9UM73 19-1620 C1156Y): as the sequence (Q9UM73 19-1620) above, with C1138Y counted along it
# ALK L1196M mutant = ALK L1196M mutant (Homo sapiens, UniProt Q9UM73, L1196M); assay: Biochemical kinase assay
# ALK L1196M mutant, sequence (Q9UM73 19-1620 L1196M): as the sequence (Q9UM73 19-1620) above, with L1178M counted along it
# ALK S1206R mutant = ALK S1206R mutant (Homo sapiens, UniProt Q9UM73, S1206R); assay: Biochemical kinase assay
# ALK S1206R mutant, sequence (Q9UM73 19-1620 S1206R): as the sequence (Q9UM73 19-1620) above, with S1188R counted along it
# ALK T1151 mutant = ALK T1151 mutant (Homo sapiens, UniProt Q9UM73); assay: Biochemical kinase assay
# ALK T1151 mutant, sequence (Q9UM73 1058-1620, change not shown): as the sequence (Q9UM73 1058-1620, stated change not applied) above
# TPM3-TRKA = TPM3-TRKA (Homo sapiens, UniProt P04629); assay: Biochemical kinase assay
# TPM3-TRKA, sequence (P04629 399-796): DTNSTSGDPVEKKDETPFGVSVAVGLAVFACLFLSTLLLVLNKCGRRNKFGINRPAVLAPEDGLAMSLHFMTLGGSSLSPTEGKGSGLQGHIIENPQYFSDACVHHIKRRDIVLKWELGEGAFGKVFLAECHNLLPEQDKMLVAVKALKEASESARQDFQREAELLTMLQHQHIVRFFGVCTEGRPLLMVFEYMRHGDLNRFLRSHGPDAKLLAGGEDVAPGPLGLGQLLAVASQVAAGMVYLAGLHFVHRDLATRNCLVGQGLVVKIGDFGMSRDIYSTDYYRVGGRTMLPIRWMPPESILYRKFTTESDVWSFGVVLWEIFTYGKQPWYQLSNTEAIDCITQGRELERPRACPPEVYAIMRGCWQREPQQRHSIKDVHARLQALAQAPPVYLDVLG
# TPM3-TRKA, sequence (P06753 2-258 partner): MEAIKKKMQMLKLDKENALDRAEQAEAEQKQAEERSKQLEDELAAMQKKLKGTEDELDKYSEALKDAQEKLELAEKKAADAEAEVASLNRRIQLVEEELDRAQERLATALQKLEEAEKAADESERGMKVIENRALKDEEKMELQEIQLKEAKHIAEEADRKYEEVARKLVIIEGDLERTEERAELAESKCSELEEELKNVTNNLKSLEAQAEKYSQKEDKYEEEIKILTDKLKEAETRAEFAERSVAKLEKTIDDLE
# TRKC = TRKC (Homo sapiens, UniProt Q16288); assay: Biochemical kinase assay
# GOPC-ROS1 = GOPC-ROS1 (Homo sapiens, UniProt P08922); assay: Biochemical kinase assay
# GOPC-ROS1, sequence (P08922 1881-2347, other chains not shown): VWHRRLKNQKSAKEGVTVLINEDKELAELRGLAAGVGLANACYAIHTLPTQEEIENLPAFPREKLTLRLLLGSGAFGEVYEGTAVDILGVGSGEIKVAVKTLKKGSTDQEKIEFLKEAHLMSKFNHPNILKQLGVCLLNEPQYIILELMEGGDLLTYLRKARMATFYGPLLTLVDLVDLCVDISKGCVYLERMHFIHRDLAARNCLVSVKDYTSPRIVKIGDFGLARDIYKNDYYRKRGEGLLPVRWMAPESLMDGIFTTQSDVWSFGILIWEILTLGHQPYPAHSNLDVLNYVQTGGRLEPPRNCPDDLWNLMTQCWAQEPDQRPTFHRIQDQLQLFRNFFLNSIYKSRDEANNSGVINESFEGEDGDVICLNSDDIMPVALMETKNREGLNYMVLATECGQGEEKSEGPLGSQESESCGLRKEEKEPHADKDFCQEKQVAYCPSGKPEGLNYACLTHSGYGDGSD
# EphA2 = EphA2 (Homo sapiens, UniProt P29317); assay: Biochemical kinase assay
# EphA1 = molecular target: T1, EphA1 (Homo sapiens, UniProt P21709); assay: Biochemical kinase assay
# T1 sequence (P21709 26-976): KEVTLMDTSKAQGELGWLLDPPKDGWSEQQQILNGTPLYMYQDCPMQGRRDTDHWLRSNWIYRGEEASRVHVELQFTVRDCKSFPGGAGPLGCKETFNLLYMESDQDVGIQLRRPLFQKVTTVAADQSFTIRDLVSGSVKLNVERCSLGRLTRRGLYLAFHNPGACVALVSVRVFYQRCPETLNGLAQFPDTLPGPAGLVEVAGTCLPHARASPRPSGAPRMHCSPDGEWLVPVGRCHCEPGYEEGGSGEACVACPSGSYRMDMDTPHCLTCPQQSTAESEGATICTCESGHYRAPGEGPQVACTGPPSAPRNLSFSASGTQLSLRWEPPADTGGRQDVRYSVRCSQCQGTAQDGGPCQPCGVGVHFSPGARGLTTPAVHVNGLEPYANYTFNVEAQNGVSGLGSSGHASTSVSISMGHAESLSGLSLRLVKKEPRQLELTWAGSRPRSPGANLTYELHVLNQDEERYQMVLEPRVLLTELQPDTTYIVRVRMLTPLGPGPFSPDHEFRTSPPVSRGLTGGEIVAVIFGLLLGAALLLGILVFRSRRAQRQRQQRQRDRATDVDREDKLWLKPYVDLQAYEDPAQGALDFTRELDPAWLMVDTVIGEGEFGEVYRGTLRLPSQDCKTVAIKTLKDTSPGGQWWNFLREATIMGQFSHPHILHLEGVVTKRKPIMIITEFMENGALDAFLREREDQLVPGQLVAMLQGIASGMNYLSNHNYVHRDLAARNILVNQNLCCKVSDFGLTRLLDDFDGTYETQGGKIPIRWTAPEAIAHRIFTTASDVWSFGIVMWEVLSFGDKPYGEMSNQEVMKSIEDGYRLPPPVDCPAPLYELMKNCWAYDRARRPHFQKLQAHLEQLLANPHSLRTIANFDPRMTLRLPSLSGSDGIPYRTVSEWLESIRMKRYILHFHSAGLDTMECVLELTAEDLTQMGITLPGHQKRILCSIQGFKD
# EphB1 = molecular target: T2, EphB1 (Homo sapiens, UniProt P54762); assay: Biochemical kinase assay
# T2 sequence (P54762 18-984): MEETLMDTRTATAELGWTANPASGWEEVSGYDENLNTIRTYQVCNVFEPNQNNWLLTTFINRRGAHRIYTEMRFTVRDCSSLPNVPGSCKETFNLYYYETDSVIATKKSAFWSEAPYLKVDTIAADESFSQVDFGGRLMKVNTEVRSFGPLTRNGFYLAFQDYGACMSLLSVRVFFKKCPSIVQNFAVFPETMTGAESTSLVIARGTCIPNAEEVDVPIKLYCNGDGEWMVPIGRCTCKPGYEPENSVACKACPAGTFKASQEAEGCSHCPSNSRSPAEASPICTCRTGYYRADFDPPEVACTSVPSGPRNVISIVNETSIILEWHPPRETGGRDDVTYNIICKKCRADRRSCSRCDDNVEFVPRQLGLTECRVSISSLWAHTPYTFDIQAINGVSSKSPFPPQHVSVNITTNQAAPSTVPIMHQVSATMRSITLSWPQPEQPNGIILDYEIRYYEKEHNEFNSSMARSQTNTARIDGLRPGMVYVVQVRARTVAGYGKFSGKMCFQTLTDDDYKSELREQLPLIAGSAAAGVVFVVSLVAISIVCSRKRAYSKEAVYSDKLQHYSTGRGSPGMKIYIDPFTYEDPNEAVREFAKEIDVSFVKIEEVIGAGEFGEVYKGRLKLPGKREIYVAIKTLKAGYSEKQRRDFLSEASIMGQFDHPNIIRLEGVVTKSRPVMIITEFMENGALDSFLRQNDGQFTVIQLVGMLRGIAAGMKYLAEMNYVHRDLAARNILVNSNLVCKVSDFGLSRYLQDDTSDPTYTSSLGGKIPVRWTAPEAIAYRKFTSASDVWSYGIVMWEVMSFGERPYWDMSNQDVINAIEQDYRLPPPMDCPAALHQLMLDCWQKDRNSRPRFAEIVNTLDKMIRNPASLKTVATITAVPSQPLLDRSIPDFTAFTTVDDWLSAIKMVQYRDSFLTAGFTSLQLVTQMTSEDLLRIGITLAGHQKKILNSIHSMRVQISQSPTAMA
# c-MET = c-MET (Homo sapiens, UniProt P08581); assay: Biochemical kinase assay
# c-MET, sequence (P08581 25-1390): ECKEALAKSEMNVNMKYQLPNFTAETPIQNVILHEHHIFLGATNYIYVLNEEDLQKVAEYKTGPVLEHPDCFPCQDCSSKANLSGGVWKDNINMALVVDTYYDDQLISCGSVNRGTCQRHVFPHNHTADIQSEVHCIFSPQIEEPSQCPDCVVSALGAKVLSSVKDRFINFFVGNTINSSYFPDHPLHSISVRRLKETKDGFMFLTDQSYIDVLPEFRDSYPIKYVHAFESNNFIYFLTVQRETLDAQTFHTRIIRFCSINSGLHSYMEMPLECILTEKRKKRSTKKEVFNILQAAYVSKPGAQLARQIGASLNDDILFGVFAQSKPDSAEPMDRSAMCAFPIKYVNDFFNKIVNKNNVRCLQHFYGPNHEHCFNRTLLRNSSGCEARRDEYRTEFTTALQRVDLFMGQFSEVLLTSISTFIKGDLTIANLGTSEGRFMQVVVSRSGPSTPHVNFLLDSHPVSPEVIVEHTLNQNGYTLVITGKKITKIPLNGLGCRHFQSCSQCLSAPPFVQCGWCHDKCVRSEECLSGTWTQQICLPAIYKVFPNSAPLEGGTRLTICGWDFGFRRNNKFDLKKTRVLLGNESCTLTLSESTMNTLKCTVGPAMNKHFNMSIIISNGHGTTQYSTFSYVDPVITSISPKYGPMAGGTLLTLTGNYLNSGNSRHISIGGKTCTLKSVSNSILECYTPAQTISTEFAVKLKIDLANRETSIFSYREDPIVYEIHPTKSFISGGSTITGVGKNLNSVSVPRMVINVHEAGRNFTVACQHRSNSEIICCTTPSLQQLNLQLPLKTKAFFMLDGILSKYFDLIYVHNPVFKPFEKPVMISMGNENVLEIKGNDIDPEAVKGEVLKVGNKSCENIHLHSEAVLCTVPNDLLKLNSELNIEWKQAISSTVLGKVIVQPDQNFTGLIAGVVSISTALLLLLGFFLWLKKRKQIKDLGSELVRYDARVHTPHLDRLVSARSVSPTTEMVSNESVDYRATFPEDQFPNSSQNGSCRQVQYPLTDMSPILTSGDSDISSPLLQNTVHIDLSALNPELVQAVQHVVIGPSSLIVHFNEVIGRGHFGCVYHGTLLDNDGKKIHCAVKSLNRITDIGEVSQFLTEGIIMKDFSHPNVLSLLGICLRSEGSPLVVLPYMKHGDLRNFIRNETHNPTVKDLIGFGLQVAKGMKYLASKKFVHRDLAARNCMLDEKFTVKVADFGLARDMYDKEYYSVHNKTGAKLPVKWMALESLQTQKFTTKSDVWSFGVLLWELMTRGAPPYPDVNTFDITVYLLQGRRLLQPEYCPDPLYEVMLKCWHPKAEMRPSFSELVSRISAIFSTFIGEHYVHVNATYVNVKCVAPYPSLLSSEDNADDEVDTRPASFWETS
# Phase I/II trial, safety = format: in vivo
# [4] = Phase I/II trial, plasma pharmacokinetics; format: in vivo, human
# ALK-positive NSCLC [5] = assay: Phase I/II trial, antitumor activity; format: in vivo, human
# [6] = test system: ALK-positive lung cancer cell lines; conditions: cited from earlier work
# [7] = test system: ALK fusions engineered to have point mutation L1196M; conditions: mutation associated with crizotinib resistance; cited from earlier work
# [8] = test system: ALK fusions engineered to have point mutation C1156Y; conditions: mutation associated with crizotinib resistance; cited from earlier work
# [9] = test system: H3122 lung cancer xenografts (EML4-ALK E13;A20 fusion); conditions: cited from earlier work
# [10] = ALK-positive efficacy evaluable patients, ≥200 mg, n=60
# [11] = patients with baseline CNS target lesions, n=14, ≥200 mg
# [12] = prior crizotinib and at least one second-generation ALK TKI, n=16
smiles,measurement,setting,value
COc1cc(N2CCC(N3CCN(C)CC3)CC2)ccc1Nc1ncc(Cl)c(Nc2ccccc2P(C)(C)=O)n1 [brigatinib],RR,ALK-positive NSCLC [1],54%
same,median PFS,ALK-positive NSCLC [1],12.9 months
same,patients who experienced diarrhea,[2],41%
Cc1cc(Nc2ncc(Cl)c(Nc3ccccc3S(=O)(=O)C(C)C)n2)c(OC(C)C)cc1C1CCNCC1 [ceritinib],patients discontinuing therapy,ALK-positive NSCLC [3],10%
same,patients who experienced a SAE,ALK-positive NSCLC [3],38%
same,patients with a dose interruption,ALK-positive NSCLC [3],66%
same,RR,ALK-positive NSCLC [3]; first line,73%
same,intracranial response,ALK-positive NSCLC [3]; first line,57%
same,median PFS,ALK-positive NSCLC [3]; first line,16.6 months
same,patients with vomiting,[2],majority of patients
same,patients who experienced diarrhea,[2],75%
C[C@@H]1CN(C(=O)c2ccc(NC(=O)c3cc(O[C@H](C)c4c(Cl)ccc(F)c4Cl)c(N)nn3)cc2)C[C@H](C)N1 [ensartinib],IC50,wild-type ALK,< 0.4 nM
same,IC50,ALK variants,< 4 nM
same,IC50,ALK F1174 mutant,< 0.4 nM
same,IC50,ALK C1156Y mutant,< 0.4 nM
same,IC50,ALK L1196M mutant,< 0.4 nM
same,IC50,ALK S1206R mutant,< 0.4 nM
same,IC50,ALK T1151 mutant,< 0.4 nM
same,IC50,TPM3-TRKA,< 1 nM
same,IC50,TRKC,< 1 nM
same,IC50,GOPC-ROS1,< 1 nM
same,IC50,EphA2,1 to 10 nM
same,IC50,EphA1,1 to 10 nM
same,IC50,EphB1,1 to 10 nM
same,IC50,c-MET,1 to 10 nM
same,maximum tolerated dose,"Phase I/II trial, safety; 25-250 mg once daily",not reached
same,deaths related to ensartinib,"Phase I/II trial, safety; as considered by the sponsor",no deaths
same,"Constipation, All grades","Phase I/II trial, safety; human, in vivo",11 (11%)
same,"Constipation, Grade ≥3","Phase I/II trial, safety; human, in vivo",0
same,"Decreased Appetite, All grades","Phase I/II trial, safety; human, in vivo",18 (19%)
same,"Decreased Appetite, Grade ≥3","Phase I/II trial, safety; human, in vivo",1 (1%)
same,"Diarrhea, All grades","Phase I/II trial, safety; human, in vivo",11 (11%)
same,"Diarrhea, Grade ≥3","Phase I/II trial, safety; human, in vivo",0
same,"Dry Skin, All grades","Phase I/II trial, safety; human, in vivo",14 (14%)
same,"Dry Skin, Grade ≥3","Phase I/II trial, safety; human, in vivo",1 (1%)
same,"Edema, All grades","Phase I/II trial, safety; human, in vivo",15 (15%)
same,"Edema, Grade ≥3","Phase I/II trial, safety; human, in vivo",1 (1%)
same,"Elevated aspartate aminotransferase, All grades","Phase I/II trial, safety; human, in vivo",12 (12%)
same,"Elevated aspartate aminotransferase, Grade ≥3","Phase I/II trial, safety; human, in vivo",1 (1%)
same,"Fatigue, All grades","Phase I/II trial, safety; human, in vivo",21 (22%)
same,"Fatigue, Grade ≥3","Phase I/II trial, safety; human, in vivo",2 (2%)
same,"Nausea, All grades","Phase I/II trial, safety; human, in vivo",35 (36%)
same,"Nausea, Grade ≥3","Phase I/II trial, safety; human, in vivo",1 (1%)
same,"Pruritus, All grades","Phase I/II trial, safety; human, in vivo",27 (28%)
same,"Pruritus, Grade ≥3","Phase I/II trial, safety; human, in vivo",5 (5%)
same,"Rash, All grades","Phase I/II trial, safety; human, in vivo",54 (56%)
same,"Rash, Grade ≥3","Phase I/II trial, safety; human, in vivo",12 (12%)
same,"Vomiting, All grades","Phase I/II trial, safety; human, in vivo",25 (26%)
same,"Vomiting, Grade ≥3","Phase I/II trial, safety; human, in vivo",1 (1%)
same,drug-related diarrhea,"Phase I/II trial, safety; human, in vivo",11%
same,patients permanently discontinued due to related toxicity,"Phase I/II trial, safety; human, in vivo",5.2%
same,patients requiring at least one dose reduction due to treatment-related toxicity,"Phase I/II trial, safety; human, in vivo",25%
same,patients with treatment-related Grade 3-4 AEs,"Phase I/II trial, safety; human, in vivo",23%
same,treatment-related fatigue,"Phase I/II trial, safety; human, in vivo",22%
same,treatment-related nausea,"Phase I/II trial, safety; human, in vivo",36%
same,treatment-related pruritus,"Phase I/II trial, safety; human, in vivo",28%
same,treatment-related vomiting,"Phase I/II trial, safety; human, in vivo",26%
same,recommended phase II dose (RP2D),"Phase I/II trial, safety; human, in vivo, 28 days",225 mg
same,patients who died while on study,"Phase I/II trial, safety; n=97",Five
same,impact of food on absorption,"[4]; 225 mg, food consumed within 30 minutes after taking ensartinib",minimal impact
same,increase in mean day 22 AUC from 225 to 250 mg,"[4]; fasted, 11% increase in dose",36%
same,dose proportionality of mean day 22 Cmax and AUC,"[4]; fasted, 200-225 mg",slightly more than dose proportionally
same,dose proportionality of mean day 22 Cmax and AUC,"[4]; fasted, 225-250 mg",significantly more than dose proportionally
same,dose proportionality of mean day 22 Cmax and AUC,"[4]; human, in vivo",increased dose proportionally
same,median DOR,"ALK-positive NSCLC [5]; ALK TKI naïve patients, n=12",24.4 months
same,median PFS,ALK-positive NSCLC [5]; ALK TKI-naïve patients,26.2 months
same,disease control rate (DCR),"ALK-positive NSCLC [5]; ALK TKI-naïve patients, n=15",86.7%
same,response rate (RR),"ALK-positive NSCLC [5]; ALK TKI-naïve patients, n=15",80%
same,disease control rate (DCR),ALK-positive NSCLC [5]; [10],81.7%
same,patients with tumor regression,ALK-positive NSCLC [5]; [10],80%
same,median DOR,"ALK-positive NSCLC [5]; ALK-positive evaluable patients, n=35",12.8 months
same,median PFS,"ALK-positive NSCLC [5]; ALK-positive evaluable patients, ≥200 mg",9.2 months
same,median DOR,"ALK-positive NSCLC [5]; crizotinib and a second-generation ALK TKI, n=4",4.4 months
same,intracranial DCR,ALK-positive NSCLC [5]; [11],92.9%
same,intracranial response rate,ALK-positive NSCLC [5]; [11],64% and 64.3%
same,patients with intracranial tumor regression,ALK-positive NSCLC [5]; [11],78.6%
same,disease control rate (DCR),ALK-positive NSCLC [5]; [12],50.0%
same,response rate (RR),ALK-positive NSCLC [5]; [12],25%
same,median PFS,ALK-positive NSCLC [5]; prior crizotinib only,9.0 months
same,median DOR,"ALK-positive NSCLC [5]; prior crizotinib only, n=19",7.4 months
same,disease control rate (DCR),"ALK-positive NSCLC [5]; prior crizotinib only, n=29",96.6%
same,response rate (RR),"ALK-positive NSCLC [5]; prior crizotinib only, n=29",69%
same,median intracranial DOR,"ALK-positive NSCLC [5]; responding patients with CNS target lesions at baseline, n=9, ≥200 mg",5.7 months
same,potency relative to crizotinib at inhibiting growth,[6],10 fold
same,inhibition of ALK fusion with L1196M,[7],potently inhibited
same,inhibition of ALK fusion with C1156Y,[8],potently inhibited
same,antitumor activity in xenografts,[9],potent antitumor activity
